Target: human plasma protein factor Xa (Homo sapiens (Human), UniProt P00742)
Assay: FXa inhibitory activity, IC50 determination (cleavage of paranitroanilide substrate S-2765)
Assay type: biochemical
Settings: factor Xa 1 nM, S2765 100 μM, Tris buffered saline pH 7.4
Description: This example illustrates methods for evaluating the compounds, along with results obtained for such assays. As mentioned above, the compound may be selected based on its factor Xa inhibitory activity. The in vitro factor Xa activities of the compounds can be determined by various procedures known in the art. […] The IC50 value is the concentration (in nM) of the compound required to provide 50% inhibition of factor Xa proteolytic activity.
An in vitro assay for detecting and measuring inhibition activity against factor Xa is as follows:
The substrate S-2765 (Z-D-Arg-Gly-Arg-pNA.HCl) can be obtained from Diapharma (West Chester, Ohio).
The human plasma protein factor Xa can be purchased from Haematologic Technologies (Essex Junction, Vt.).
All assays, which are performed in 96-well microtiter plates, measure proteolytic activity of the enzyme (factor Xa) by following cleavage of a paranitroanilide peptide substrate. The assay buffer used for proteolytic assays was Tris buffered saline (20 mM Tris, 150 mM NaCl, 5 mM CaCl2, 0.1% Bovine serum albumin (BSA), 5% dimethly sulfoxide (DMSO) pH 7.4). In a 96-well microtiter plate, inhibitor was serially diluted to give a range of final concentrations from 0.01 nM to 10 μM. Duplicate sets of wells were assayed and control wells without inhibitor were included. Enzyme was added to each well, (factor Xa concentration=1 nM), the plate was shaken for 5 seconds and then incubated for 5 minutes at room temperature. S2765 was added (100 μM final) and the plate was shaken for 5 seconds (final volume in each well was 200 μL). The degree of substrate hydrolysis was measured at 405 nm on a Thermomax plate reader (Molecular Devices, Sunnyvale, Calif.) for 2 minutes. The initial velocities of substrate cleavage (mOD/min), for each range of inhibitor concentrations, were fitted to a four parameter equation using Softmax data analysis software. The parameter C, derived from the resulting curve-fit, corresponded to the concentration for half maximal inhibition (IC50).

human plasma protein factor Xa, sequence (P00742 41-179): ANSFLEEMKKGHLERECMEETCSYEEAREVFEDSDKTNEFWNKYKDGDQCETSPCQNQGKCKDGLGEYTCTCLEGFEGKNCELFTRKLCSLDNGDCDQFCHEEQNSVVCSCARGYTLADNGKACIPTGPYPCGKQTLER
human plasma protein factor Xa, sequence (P00742 235-488): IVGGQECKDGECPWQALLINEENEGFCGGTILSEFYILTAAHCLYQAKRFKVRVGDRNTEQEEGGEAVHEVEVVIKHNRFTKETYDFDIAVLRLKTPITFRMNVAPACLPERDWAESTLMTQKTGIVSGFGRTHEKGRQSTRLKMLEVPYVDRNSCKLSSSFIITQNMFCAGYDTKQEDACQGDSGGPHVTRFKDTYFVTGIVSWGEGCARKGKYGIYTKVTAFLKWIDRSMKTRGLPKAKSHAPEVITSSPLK

Compound	IC50
CN(C)C(=N)c1ccc(C(=O)Nc2ccc(OCC(=O)NCCCCCCN)cc2C(=O)Nc2ccc(Cl)cn2)cc1	24 nM
CS(=O)(=O)c1ccc(C(=O)Nc2ccc(Cl)cc2C(=O)Nc2ccc(Cl)cn2)c(NCCCCCCN)c1	158 nM
CS(=O)(=O)c1ccc(C(=O)Nc2ccc(Cl)cc2C(=O)Nc2ccc(Cl)cn2)c(NCCCCCCCN)c1	320 nM

More lines, in order of falling IC50, values ahead:

IC50	Compound
615 nM	NCCCCCCNc1cc(C(F)(F)F)ccc1C(=O)Nc1ccc(Cl)cc1C(=O)Nc1ccc(Cl)cn1
227 nM	CN(C)C(=N)c1ccc(C(=O)Nc2ccc(OCC(=O)NCCCCCCN)cc2C(=O)Nc2ccccn2)cc1

From patent US9200268B2, “Compounds and methods for purification of serine proteases” (Portola Pharmaceuticals, Inc., priority 2012, dated 2015)
